Measurements published in US20250195542A1, “METABOLIC DISEASE THERAPEUTIC AGENT OR PREVENTIVE AGENT” (Peking University, priority 2022, published 2025).
Numbering of substitutions follows the chain as printed.

Key:
[1] = tested on: mouse primary liver cells; assay: Oleic acid-palmitic acid induced lipid deposition with RDH10 siRNA knockdown, mouse primary liver cells (Oil Red O); format: cell-based; details: 20 μM
[2] = molecular target: T1, RDH10 (Mus musculus, UniProt Q8VCH7); assay: Cellular thermal shift assay (CETSA / ITDRFCETSA); format: binding
T1 construct: Take approximately 50 mg of liver tissue from C57BL/6J mice and add 1 mL of RIPA lysis buffer; from tissue; host or cells: mouse liver (C57BL/6J) lysate
T1 sequence (Q8VCH7 1-341): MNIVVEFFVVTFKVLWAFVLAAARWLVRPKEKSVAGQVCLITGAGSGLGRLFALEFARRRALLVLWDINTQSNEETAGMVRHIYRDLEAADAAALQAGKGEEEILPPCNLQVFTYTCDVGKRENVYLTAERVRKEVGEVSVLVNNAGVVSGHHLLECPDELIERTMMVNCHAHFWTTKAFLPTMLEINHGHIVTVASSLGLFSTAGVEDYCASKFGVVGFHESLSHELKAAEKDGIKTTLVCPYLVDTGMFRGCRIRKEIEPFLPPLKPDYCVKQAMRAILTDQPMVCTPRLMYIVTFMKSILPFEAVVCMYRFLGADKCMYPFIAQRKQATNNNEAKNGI
Experimental: • 1. Mouse liver total protein (500 μg/mL) was incubated at room temperature for 2 hours with either 25S-Antcin C (100 μM) or an equal volume of DMSO. • 2. After incubation, the 25S-Antcin C-treated group and the DMSO control group were aliquoted into 13 PCR tubes, with 30 μL per tube, and placed on ice. • 3. In a PCR machine, a gradient heating program for CETSA was set up with 12 temperature points (37, 41, 45, 49, 53, 57, 61, 65, 69, 73, 77, 81° C.). The 13 samples from the 25S-Antcin C-treated group and the DMSO control group were heated at each temperature point for 3 minutes, then immediately taken out and incubated at room temperature for 3 minutes, followed by rapid cooling on ice. • 4. The samples were transferred to 1.5 mL EP tubes and centrifuged at 15,000 rpm for 40 minutes at 4° C. • 5. The supernatant was transferred to new EP tubes, mixed with 5×SDS-PAGE loading buffer, and boiled for 5 minutes to denature the proteins. Western Blot was then performed.

[3] = tested on: NASH in MCD model mice; assay: H&E liver histology in MCD mice, Example 12; format: in vivo, C57BL/6J mice; details: oral 4 weeks, 10 and 20 mg/kg, better than obeticholic acid 10 mg/kg, FIG. 17A
Experimental: (§1) Four-week-old male C57BL/6J mice were purchased from the Experimental Animal Center, Peking University Health Science Center. The mice were randomly divided into groups, with 10 mice per group. Methionine choline-deficient diet (MCD) was used to induce NASH, forming the MCD model mice. The model mice were treated with an oral administration of drugs for 4 weeks. After the final treatment, the mice were fasted overnight, and then sacrificed. Serum and liver tissue samples were stored at −80° C., which could be compared with untreated MCD mice (“MCD”) and normal mice (“Nor” or “Normal”). The dosing amounts for each group were as follows: low-dose 25S-Antcin C (“ACS-L”): 10 mg/kg; high-dose 25S-Antcin C (“ACS-H”): 20 mg/kg; obeticholic acid (“OCA”): 10 mg/kg.
After the final treatment, the mice were sacrificed, and the liver tissue samples were fixed overnight in 4% paraformaldehyde, embedded in paraffin, and sectioned. […]

[4] = tested on: L02 human liver cells; assay: Oleic acid-palmitic acid induced lipid deposition with RDH10 siRNA knockdown, L02 cells (Oil Red O); format: cell-based; details: 20 μM
[5] = molecular target: T2, RDH10 protein (Homo sapiens, UniProt Q8IZV5); assay: Surface plasmon resonance (SPR), Biacore T200; format: binding; details: RDH10 immobilized on CM5 chip; 25S-Antcin C 0.78-25 μM; FIG. 15B
T2 sequence (Q8IZV5 1-341): T1 sequence (Q8VCH7 1-341) with K99N, P107H, R278K, V287I
Experimental: Using a Biacore T200 plasmon surface resonance instrument, RDH10 protein was immobilized on a CM5 sensor chip via an amine coupling reaction. The pH of the RDH10 protein was 4.5, and the final immobilization concentration was 50 μg/mL. The running buffer consisted of 50 mM Tris-Hcl buffer containing […] NaCl, 2 mM MgCl2, 0.05% Tween-20, and 5% DMSO. In the binding experiment, different concentrations of 25S-Antcin C (25, 12.5, 6.25, 3.12, 1.56, 0.78 μM) were dissolved in the running buffer. The flow rate was 30 μL/min, with a contact time of 60 seconds and a dissociation time of 60 seconds. Data were analyzed using Biacore software, and the kinetic analysis calculated the affinity constant (KD value).

[6] = molecular target: T1, RDH10; assay: Protein fishing (pull-down) with molecular probe and proteomics analysis; format: binding, C57BL/6J mice; details: 400 μM ACS against 40 μM ACS-biotin
Experimental: • 1. Preparation of Liver Protein: Take approximately 50 mg of liver tissue from C57BL/6J mice and add 1 mL of RIPA lysis buffer. Lyse the proteins on ice, then centrifuge at 12,000 rpm for 30 minutes at 4° C. Collect the supernatant, measure the protein concentration using BCA method, and dilute to 1 mg/mL with PBS. • 2. Sample Preparation: Prepare new 1.5 mL EP tubes and divide them into control group, drug group, and competitive inhibition group. Add 100 μL of PBS solution containing 40 μM Biotin to the control group, 100 μL of PBS solution containing 40 μM ACS-biotin (prepared in Example 1) to the drug group, and 100 μL of PBS solution containing 40 μM ACS-biotin and 400 μM ACS to the competitive inhibition group. Then, add 100 μL of liver protein lysate (1 mg/mL) to each tube and incubate on a shaking incubator at 4° C. for 2 hours. • 3. Washing Streptavidin Beads: Add 100 μL of streptavidin beads to new 1.5 mL EP tubes and centrifuge at 2,700 rpm for 1 minute. Discard the supernatant and wash the beads with 100 μL of PBS three times. • 4. Binding and Washing: Add the solutions from step 2 to the washed streptavidin beads. Incubate on a shaking incubator at 4° C. for 2 hours, then centrifuge at 2,700 rpm for 1 minute. Discard the supernatant and wash the beads with 100 μL of PBS three times. • 5. Protein Elution: Add 50 μL of PBS to the beads, mix well, and then add 5×SDS-PAGE sample buffer. Boil for 5 minutes and centrifuge at 13,000 rpm for 5 minutes. Store the supernatant at −20° C. for SDS-PAGE gel electrophoresis. • 6. Protein Detection: Stain with Coomassie Brilliant Blue and cut the gel for proteomics analysis.

[7] = tested on: NASH in MCD model mice; assay: Serum ALT and AST in MCD mice, Example 12; format: in vivo, C57BL/6J mice; details: oral 4 weeks, 10 and 20 mg/kg, better than obeticholic acid 10 mg/kg, FIG. 17B
Experimental: as §1
After the final treatment and overnight fasting, mice were anesthetized, and blood was collected from the tail vein. Whole blood was allowed to stand for 2 hours, centrifuged at 6000 rpm for 10 minutes, and the supernatant was used to measure serum alanine aminotransferase (ALT) and aspartate aminotransferase (AST) levels using ALT assay kit and AST assay kit (Bote Biotech, Beijing).

[8] = cited from earlier work
[9] = oleic acid-palmitic acid, 24 hours, FIG. 16B

| SMILES | effect on reducing lipid deposition in the RDH10 siRNA group ([1]; RDH10 knockdown) | lipid droplets, Control siRNA group [1, 9] | RDH10 protein that did not precipitate ([2]; 100 μM, among 53-69 °C) | stability of RDH10 protein at 61° C. (ITDRFCETSA) ([2]; constant 61 °C, 0.01-1000 μM, FIG. 15D) | CETSA curve of RDH10 ([2]; mouse liver total protein, 100 μM, 37-81 °C, compared to DMSO group, FIG. 15C) | liver steatosis and ballooning [3] | effect on reducing lipid deposition in the RDH10 siRNA group ([4]; RDH10 knockdown) | lipid droplets, Control siRNA group [4, 9] | Kd [5] [µM] | competitive inhibition of probe binding to RDH10 protein [6] | serum ALT levels [7] | serum AST levels [7] | serious side effects in clinical trials [8] |
| --- | --- | --- | --- | --- | --- | --- | --- | --- | --- | --- | --- | --- | --- |
| C=C(CC[C@@H](C)[C@H]1CC[C@H]2C3=C(C(=O)C[C@]12C)[C@@]1(C)CCC(=O)[C@@H](C)[C@@H]1C[C@@H]3O)[C@H](C)C(=O)O [25S-Antcin C] | almost completely lost | significantly reduced in size | significant increase | increased with higher concentrations of 25S-Antcin C, stabilizing after 100 μM | shift in the CETSA curve | significantly reduced | almost completely lost | significantly reduced in size | 8.31 | reduces the binding of the molecular probe to the RDH10 protein | significantly reduced | significantly reduced | – |
| CC[C@H]1[C@@H](O)[C@@H]2[C@H](CC[C@]3(C)[C@@H]([C@H](C)CCC(=O)O)CC[C@@H]23)[C@@]2(C)CC[C@@H](O)C[C@@H]12 [obeticholic acid] | – | – | – | – | – | – | – | – | – | – | – | – | severe pruritus |
